# Measurements reported in patent publication EP4566597A1, “STATINS USEFUL IN THE TREATMENT OF SPLACHNIC VASCULAR DYSFUNCTIONS” (Hospital Clínic de Barcelona, priority 2023, dated 2025).
# Tests used:
# PVECs = assay: qPCR of EndMT markers in PVECs treated in vitro with Simvastatin; format: cell-based, human; conditions: 5 µM Simvastatin sodium salt, 24 h
# Experimental: For portal vein endothelia cell (PVEC) isolation, excess surrounding fat tissue was meticulously removed from the vein using sterile scissors, and any residual blood was washed away with DPBS. Subsequently, the tubular vein was opened to expose the inner part of the vein facing upward. Trypsin EDTA 0,05% (Gibco, #25300054) was then added on the upper surface and incubated for 5 minutes at 37°C. EGM-2 medium was then added abundantly over the tissue and a cell scrapper (TPP-Reactiva, #99002) was used to carefully scrap the surface of the inner wall several times, in order to detach the endothelial cells from the vein wall. The EGM-2 medium with cells in suspension was then centrifuged at 300 g for 5 minutes and pellet resuspended in 2 ml of fresh EGM-2. Cells were then seeded in a well from a 6-well plate pre-coated with human plasma fibronectin at a concentration of 1 µg/cm^2 (Sigma, #F0895), and fresh media changed every other day until confluence. On average, confluence was reached 10 days after isolation.
# In order to isolate PVECs from other cell types that were also scrapped during the initial tissue processing, cells were detached, stained with anti-CD31-FITC (BD Bioscience, #555445) and CD144 -BV786 (BD Bioscience, #565672) antibodies and FACS sorted in a FACS Aria II cell sorter (BD Biosciences) according to manufacturer's instructions. PVECs were selected as CD31^+ CD144^+ cells and seeded back to either a 6-well plate, T25 or T75 flasks, depending on the cell amount obtained. Once ECs reached confluency, a third of the cells were collected in RLT buffer (Qiagen) for subsequent RNA isolation (passage 1), a third was used for flow cytometry purity analysis and the final one third was passaged into a new 6-well plate. From this moment onwards, […] portal vein endothelial cells (PVECs) were expanded at a split ratio of 1:5 until senescence. At every passage, a fraction of the cells was cryopreserved for future experiments, while the rest was used for flow cytometry purity check, RLT collection and tube assays. Endothelial phenotype of PVECs was routinely monitored by cell morphology, flow cytometry, immunofluorescence and tube formation capacity.
# (§1) PVECs were seeded in 6-well plates in triplicates (for RNA collection) and in 60mm dishes (for protein collection) at a concentration of 6x10^4 cells/ml and grow for 24 h to obtain 70% confluency. PVECs from CT (n=3), CH (n=7) and CH-PVT (n=6) were then treated in vitro with 5 µM Simvastatin sodium salt (Sigma, #567022) for another 24 h and collected in either RLT or RIPA buffer for further analysis by means of quantitative real-time polymerase chain reaction (qPCR) or Western blotting, respectively. Its effect on mesenchymal markers and EndMT promoters, including TFs and all the molecules involved in EndMT initiation or progression previously described, was studied.
# Total RNA was isolated by RNeasy Micro and Mini kit (Qiagen) as stated above. First-strand cDNA was synthesized using the High Capacity cDNA Reverse Transcription Kit (Applied, Thermo Fisher, #4368814) according to the manufacturer's instructions. Quantitative real-time PCR (qPCR) was performed using PowerUp™ sybr® Green Master Mix (Applied Biosystems, #A25776) with technical duplicates using an AB1 Prism® 7900 HT Cycler (Applied Biosystems). PCR cycle parameters were as follows: 95 °C for 10' followed by 40 cycles at 95 °C for 15" and 60 °C for 1'. Results were obtained with the Sequence Detection System 3.2 software (Applied Biosystems) and further analyzed by the 2-ΔΔCt method. GAPDH was used as a loading control. Results are shown as fold-change.
# phosphor-SMAD2 = assay: Western blot of PVECs treated in vitro with simvastatin; format: cell-based, human; conditions: FIG. 10
# Experimental: as §1
# Proteins were extracted with RIPA buffer complemented with Halt Protease & Phosphatase inhibitors (ThermoFisher) and total protein estimated using Bradford's Reagent (Bio-Rad) following manufacturer's instructions. […] Extracted proteins were analyzed by western blot. […] Images were acquired with a LAS-4000 apparatus (Fujifilm, TDI, Alcobendas, Spain) and protein expression was determined by densitometric analysis using the Image Studio Lite software (LI-COR). Results are expressed as relative densitometric values normalized to endogenous control β-actin. […]
# [1] = PVECs from CT, CH and CH-PVT, qPCR, FIG. 9
# [2] = PVEC from cirrhotic patients with or without PVT, qPCR
compound,measurement,setting,value
"CCC(C)(C)C(=O)O[C@H]1C[C@@H](C)C=C2C=C[C@H](C)[C@H](CC[C@@H]3C[C@@H](O)CC(=O)O3)[C@H]21 [Simvastatin, [(1S,3R,7S,8S,8aR)-8-[2-[(2R,4R)-4-hydroxy-6-oxooxan-2-yl]ethyl]-3,7-dimethyl-1,2,3,7,8,8a-hexahydronaphthalen-1-yl] 2,2-dimethylbutanoate]",endothelial markers expression (Cd31),PVECs; [1],increasing
same,endothelial markers expression (NOs3),PVECs; [1],increasing
same,expression of mesenchymal markers (AIFM2),PVECs; [2],reduced
same,expression of mesenchymal markers (CDH2),PVECs; [2],reduced
same,expression of the adhesion molecule VCAM1,PVECs; [2],reduced
same,EndMT occurring in PVEC,"PVECs; overall finding, FIG. 9",can ameliorate
same,GTPase (Rac2) expression,PVECs; qPCR,decreasing
same,Serpine1 expression,PVECs; qPCR,decreasing
same,expression of transcription factor Snail1,PVECs; qPCR,reduced
same,phosphor-SMAD2 protein levels,phosphor-SMAD2,capable of reducing
